Experimental data as given in patent EP3327020A1, “CITRATE SALTS OF A JANUS KINASE (JAK) INHIBITOR” (SANDOZ AG, priority 2016, dated 2018).
Converted amounts (≈) assume the structure as drawn. “Also recorded” adds a separate entry of the source.

Experiment: Solubility in 0.1N aqueous HCl (saturated solution stirred at 37 °C for 1 hour, filtered, baricitinib concentration of the mother liquor determined by HPLC)
Format: physicochemical
Conditions: for solubility at 1 h: simulated gastric fluid, thermodynamic from solid, read-out: Solubility in 0.1N aqueous HCl after 1 hour
Description: The solubilities of baricitinib free base, phosphate, trifluoroacetate, monocitrate and dicitrate in 0.1N HCl have been determined. […] Thereafter, the solid was removed by filtration and the baricitinib concentration of the mother liquor was determined by HPLC.
The absolute solubility values were calculated from a calibration curve generated with solutions of known baricitinib concentrations and are listed in Table 5. Table 5: Comparative solubility data in 0.1N aqueous hydrochloric acid

[1] = 0.1N aqueous HCl, 37 °C, 1 hour, baricitinib concentration by HPLC

SMILES | Solubility in 0.1N aqueous HCl after 1 hour [1] | solubility compared to the free base form (in words) (0.1N aqueous hydrochloric acid, listed as phosphate salt of baricitinib) | solubility relative to the solubility of baricitinib free base (0.1N aqueous hydrochloric acid) | solubility at 1 h [1]
CCS(=O)(=O)N1CC(CC#N)(n2cc(-c3ncnc4[nH]ccc34)cn2)C1.O=P(O)(O)O [Phosphate salt of WO 2009/114512 A1] | 26 mg/mL | only a slightly increased solubility; also recorded: only slightly improved solubility values |  | 
CCS(=O)(=O)N1CC(CC#N)(n2cc(-c3ncnc4[nH]ccc34)cn2)C1.O=C(O)CC(O)(CC(=O)O)C(=O)O.O=C(O)CC(O)(CC(=O)O)C(=O)O [{1-(Ethylsulfonyl)-3-[4-(7H-pyrrolo[2,3-d]pyrimidin-4-yl)-1H-pyrazol-1-yl]azetidin-3-yl}acetonitrile dicitrate] |  |  | more than 2 fold | > 50 mg/mL
CCS(=O)(=O)N1CC(CC#N)(n2cc(-c3ncnc4[nH]ccc34)cn2)C1 [{1-(Ethylsulfonyl)-3-[4-(7H-pyrrolo[2,3-d]pyrimidin-4-yl)-1H-pyrazol-1-yl]azetidin-3-yl}acetonitrile] |  |  |  | 25 mg/mL (≈ 67.3 mM)
CCS(=O)(=O)N1CC(CC#N)(n2cc(-c3ncnc4[nH]ccc34)cn2)C1.O=C(O)CC(O)(CC(=O)O)C(=O)O [{1-(Ethylsulfonyl)-3-[4-(7H-pyrrolo[2,3-d]pyrimidin-4-yl)-1H-pyrazol-1-yl]azetidin-3-yl}acetonitrile monocitrate] |  |  | more than 2 fold | > 50 mg/mL
